Assay results from ChEMBL document CHEMBL1201862, “PubChem BioAssay data set” (2004).
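In this assay, cells in 96-well plates receive the compound at five concentrations for 48 hours. Endpoints are linearly interpolated between the surrounding concentrations. GI50 = concentration required for 50% inhibition of growth.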 Calls of active or inactive are those of the source. Cut-off read from the data, not from the text of the source: active = GI50 up to about 1.1 µM and inactive = higher.

Key:
Assay in all cases: growth of human tumour cells (NCI), 48 h
[1] = test system: ACHN
[2] = test system: BT-549
[3] = test system: EKVX
[4] = test system: HL-60
[5] = test system: IGROV-1
[6] = test system: KM12
[7] = test system: MDA-MB-231
[8] = test system: MDA-N
[9] = test system: Malme-3M
[10] = test system: NCI-H522
[11] = test system: RPMI-8226
[12] = test system: SF-539
[13] = test system: SK-MEL-5
[14] = test system: SN12C
[15] = test system: SW-620
[16] = test system: TK-10
[17] = test system: U-251
[18] = test system: UACC-62
[19] = test system: SR

SMILES | GI50 [1] | GI50 [2] | GI50 [3] | GI50 [4] | GI50 [5] | GI50 [6] | GI50 [7] | GI50 [8] | GI50 [9] | GI50 [10] | GI50 [11] | GI50 [12] | GI50 [13] | GI50 [14] | GI50 [15] | GI50 [16] | GI50 [17] | GI50 [18] | GI50 [19]
NCC1CCN(c2nc3ccccc3c3c2CCCC3)CC1 | 12.6 µM (inactive) | 14.2 µM (inactive) | 11.8 µM (inactive) | 2.84 µM (inactive) | 8.85 µM (inactive) | 4.28 µM (inactive) | 5.57 µM (inactive) | 2.71 µM (inactive) | 13.2 µM (inactive) | 6.22 µM (inactive) | 2.31 µM (inactive) | 4.65 µM (inactive) | 2.96 µM (inactive) | 9.55 µM (inactive) | 2.86 µM (inactive) | 12.9 µM (inactive) | 5.35 µM (inactive) | 2.29 µM (inactive) | 
O=C(O)CC(NC(=O)Nc1ccc([N+](=O)[O-])cc1)C(=O)Nc1ccc([N+](=O)[O-])cc1 (stereo not drawn) | > 100 µM (inactive) | > 100 µM (inactive) | > 100 µM (inactive) |  | > 100 µM (inactive) | > 100 µM (inactive) | > 100 µM (inactive) | > 100 µM (inactive) | > 100 µM (inactive) | > 100 µM (inactive) | > 100 µM (inactive) | > 100 µM (inactive) | 50.8 µM (inactive) |  | > 100 µM (inactive) | > 100 µM (inactive) | > 100 µM (inactive) | 0.69 µM (active) | 
O=C1NC(Nc2ccccc2)=NC(C(F)(F)F)(C(F)(F)F)N1 | 35.1 µM (inactive) |  | 38.4 µM (inactive) | 31.6 µM (inactive) | 54 µM (inactive) | 41.6 µM (inactive) | 57.1 µM (inactive) | 25.1 µM (inactive) | 30.1 µM (inactive) |  | 34.1 µM (inactive) | 74.5 µM (inactive) | 25.1 µM (inactive) | 36.6 µM (inactive) | 71.8 µM (inactive) | 68.4 µM (inactive) | 27.9 µM (inactive) | 50.4 µM (inactive) | 40.1 µM (inactive)
O=[N+]([O-])c1ccc(N/N=C/CC(O)(C(F)(F)F)C(F)(F)F)c([N+](=O)[O-])c1 | 3.52 µM (inactive) |  | 5.35 µM (inactive) | 4.07 µM (inactive) | 4.47 µM (inactive) | 4.82 µM (inactive) | > 10 µM (inactive) | 5.25 µM (inactive) | 4.97 µM (inactive) | 3.21 µM (inactive) | 2.76 µM (inactive) | 2.3 µM (inactive) | 4.55 µM (inactive) | 3.41 µM (inactive) | 7.33 µM (inactive) | 5.79 µM (inactive) | 3.48 µM (inactive) | 4.06 µM (inactive) | 5.06 µM (inactive)
CCOC(=O)c1cn(CC)c2ccc3ccsc3c2c1=O | > 100 µM (inactive) | > 100 µM (inactive) | > 100 µM (inactive) | > 100 µM (inactive) | > 100 µM (inactive) | > 100 µM (inactive) | > 100 µM (inactive) | > 100 µM (inactive) | > 100 µM (inactive) | > 100 µM (inactive) | > 100 µM (inactive) | > 100 µM (inactive) | > 100 µM (inactive) |  | > 100 µM (inactive) | > 100 µM (inactive) | 5.46 µM (inactive) | > 100 µM (inactive) | 
COc1cc(OC)c2c(=O)c(OC)c(-c3ccc4c(c3)OCO4)oc2c1 | 33.6 µM (inactive) | 71.1 µM (inactive) | 41.7 µM (inactive) | 20.9 µM (inactive) | 22.1 µM (inactive) | > 100 µM (inactive) | 49.9 µM (inactive) | > 100 µM (inactive) | > 100 µM (inactive) | 38.3 µM (inactive) |  | 18.1 µM (inactive) | 47.3 µM (inactive) | 59.7 µM (inactive) | > 100 µM (inactive) | 45 µM (inactive) | 16.6 µM (inactive) | 26 µM (inactive) | 
O=C(N/N=C(COc1ccc([N+](=O)[O-])cc1)\N=C\c1ccncc1)c1ccncc1 | > 100 µM (inactive) | > 100 µM (inactive) | > 100 µM (inactive) | > 100 µM (inactive) | > 100 µM (inactive) | > 100 µM (inactive) | > 100 µM (inactive) | > 100 µM (inactive) | > 100 µM (inactive) | > 100 µM (inactive) | > 100 µM (inactive) | > 100 µM (inactive) |  | > 100 µM (inactive) | > 100 µM (inactive) | > 100 µM (inactive) | > 100 µM (inactive) | > 100 µM (inactive) | 
O=C1C=CC(=O)c2c(NCC3CC3)ccc(NCC3CC3)c21 | 39.9 µM (inactive) | 25.9 µM (inactive) | 29 µM (inactive) | 11 µM (inactive) | 47.9 µM (inactive) | 33.6 µM (inactive) | 36.1 µM (inactive) |  | 19.8 µM (inactive) | 1.05 µM (active) | 17.1 µM (inactive) | 25.5 µM (inactive) | 22.6 µM (inactive) | 23.2 µM (inactive) | 34.5 µM (inactive) | > 100 µM (inactive) | 55.7 µM (inactive) | 18.3 µM (inactive) | 21.9 µM (inactive)
COc1ccc2nc(NC(=O)C(=O)C(C#N)c3ccc(CC#N)cc3)sc2c1 (stereo not drawn) | > 100 µM (inactive) |  | 33.5 µM (inactive) | > 100 µM (inactive) | > 100 µM (inactive) | > 100 µM (inactive) |  |  | > 100 µM (inactive) | > 100 µM (inactive) | > 100 µM (inactive) | > 100 µM (inactive) | > 100 µM (inactive) | > 100 µM (inactive) | > 100 µM (inactive) | > 100 µM (inactive) | > 100 µM (inactive) | 92.9 µM (inactive) | 
C/N=C(/NC)N(C)c1nc(=[N+](C)C)ss1.[O-][Cl+3]([O-])([O-])[O-] | > 100 µM (inactive) |  | > 100 µM (inactive) | 46 µM (inactive) | > 100 µM (inactive) | > 100 µM (inactive) |  |  |  | 56.4 µM (inactive) |  | > 100 µM (inactive) | > 100 µM (inactive) | > 100 µM (inactive) | > 100 µM (inactive) | > 100 µM (inactive) | > 100 µM (inactive) | > 100 µM (inactive) | 55.5 µM (inactive)
CC(C)CC(NC(=O)C(Cc1ccccc1)NC(=O)[C@H]1CC[C@H](NC(=O)C(Cc2ccc(OC(C)(C)C)cc2)NC(=O)OC(C)(C)C)C1)C(N)=O (stereo partly drawn) | 39.8 µM (inactive) |  | > 100 µM (inactive) | 67 µM (inactive) | 23.1 µM (inactive) | 20.2 µM (inactive) | 31.9 µM (inactive) | 19.3 µM (inactive) | 26.4 µM (inactive) | 14.4 µM (inactive) | 17.7 µM (inactive) | 14.4 µM (inactive) | 1.07 µM (active) | 17.7 µM (inactive) | 29.2 µM (inactive) | 29.3 µM (inactive) | 14.8 µM (inactive) | 18.7 µM (inactive) | 29.9 µM (inactive)
COC(=O)C1(Cc2ccccc2)Cc2c(C)ccc(C)c2C1=O (stereo not drawn) | 26.9 µM (inactive) |  | 4.69 µM (inactive) | 20.2 µM (inactive) | 36.7 µM (inactive) | 13.8 µM (inactive) | 15.7 µM (inactive) | 37.1 µM (inactive) | 21.4 µM (inactive) | 19.2 µM (inactive) | 29 µM (inactive) | 39.9 µM (inactive) | 11.3 µM (inactive) | 47.8 µM (inactive) | 40.6 µM (inactive) | 49 µM (inactive) | 30 µM (inactive) | 11.5 µM (inactive) | 23.9 µM (inactive)
COC(=O)Cc1cccc2c1CCC2=O | > 100 µM (inactive) |  | > 100 µM (inactive) | > 100 µM (inactive) | > 100 µM (inactive) | > 100 µM (inactive) | > 100 µM (inactive) | > 100 µM (inactive) | > 100 µM (inactive) | > 100 µM (inactive) | > 100 µM (inactive) | > 100 µM (inactive) | > 100 µM (inactive) | > 100 µM (inactive) | > 100 µM (inactive) | > 100 µM (inactive) | > 100 µM (inactive) | > 100 µM (inactive) | > 100 µM (inactive)
CCOC(=O)NC(NC(C)CC)(C(F)(F)F)C(F)(F)F (stereo not drawn) | > 100 µM (inactive) |  | > 100 µM (inactive) | > 100 µM (inactive) | > 100 µM (inactive) | > 100 µM (inactive) | > 100 µM (inactive) | > 100 µM (inactive) | > 100 µM (inactive) | > 100 µM (inactive) | > 100 µM (inactive) | > 100 µM (inactive) | > 100 µM (inactive) | > 100 µM (inactive) | 42.3 µM (inactive) | > 100 µM (inactive) | 81.5 µM (inactive) | > 100 µM (inactive) | > 100 µM (inactive)
CCN(CC)c1nnc(CCCCCCCCc2nnc(N(CC)CC)o2)o1 | > 100 µM (inactive) | > 100 µM (inactive) | > 100 µM (inactive) | > 100 µM (inactive) | > 100 µM (inactive) | > 100 µM (inactive) | > 100 µM (inactive) | > 100 µM (inactive) | > 100 µM (inactive) | > 100 µM (inactive) |  | > 100 µM (inactive) | > 100 µM (inactive) | > 100 µM (inactive) | > 100 µM (inactive) | > 100 µM (inactive) | > 100 µM (inactive) |  | 
O=C(Nc1cc(C(=O)Nc2cccc(S(=O)(=O)O)c2)cc(C(=O)Nc2cccc(S(=O)(=O)O)c2)c1)c1cccc(C(=O)Nc2cc(C(=O)Nc3cccc(S(=O)(=O)O)c3)cc(C(=O)Nc3cccc(S(=O)(=O)O)c3)c2)c1 | > 100 µM (inactive) | > 100 µM (inactive) | > 100 µM (inactive) | 17.7 µM (inactive) | > 100 µM (inactive) | 30.7 µM (inactive) | > 100 µM (inactive) | > 100 µM (inactive) | > 100 µM (inactive) | > 100 µM (inactive) | > 100 µM (inactive) | > 100 µM (inactive) | > 100 µM (inactive) | > 100 µM (inactive) | > 100 µM (inactive) | > 100 µM (inactive) | > 100 µM (inactive) | > 100 µM (inactive) | 
